Laboratory results as given in BigSolDB 2.1.
Where a SMILES comes first, the peptide text is derived from it. [ ]: non-standard residue; d: D form. pGlu = O=C1CC[C@@H](C(=O)O)N1; Thz = O=C(O)[C@@H]1CSCN1

O=C1CC[C@@H](C(=O)N2CSC[C@H]2C(=O)O)N1 ([pGlu]-[Thz]-OH)
solubility (mole fraction) (in DMF, 278.15 K): 0.00535
solubility (mole fraction) (in DMF, 283.15 K): 0.00604
solubility (mole fraction) (in DMF, 288.15 K): 0.00734
solubility (mole fraction) (in DMF, 293.15 K): 0.00953
solubility (mole fraction) (in DMF, 298.15 K): 0.0123
solubility (mole fraction) (in DMF, 303.15 K): 0.0151
solubility (mole fraction) (in DMF, 308.15 K): 0.0182
solubility (mole fraction) (in DMF, 313.15 K): 0.0214
solubility (mole fraction) (in DMF, 318.15 K): 0.0253
solubility (mole fraction) (in DMF, 323.15 K): 0.0291
solubility (mole fraction) (in acetone, 278.15 K): 3.1e-05
solubility (mole fraction) (in acetone, 283.15 K): 5e-05
solubility (mole fraction) (in acetone, 288.15 K): 8.5e-05
solubility (mole fraction) (in acetone, 293.15 K): 0.000121
solubility (mole fraction) (in acetone, 298.15 K): 0.000176
solubility (mole fraction) (in acetone, 303.15 K): 0.000249
solubility (mole fraction) (in acetone, 308.15 K): 0.000354
solubility (mole fraction) (in acetone, 313.15 K): 0.000522
solubility (mole fraction) (in acetone, 318.15 K): 0.000693
solubility (mole fraction) (in acetone, 323.15 K): 0.000925
solubility (mole fraction) (in acetonitrile, 278.15 K): 0.000297
solubility (mole fraction) (in acetonitrile, 283.15 K): 0.000336
solubility (mole fraction) (in acetonitrile, 288.15 K): 0.000426
solubility (mole fraction) (in acetonitrile, 293.15 K): 0.00052
solubility (mole fraction) (in acetonitrile, 298.15 K): 0.000691
solubility (mole fraction) (in acetonitrile, 303.15 K): 0.000855
solubility (mole fraction) (in acetonitrile, 308.15 K): 0.00107
solubility (mole fraction) (in acetonitrile, 313.15 K): 0.00132
solubility (mole fraction) (in acetonitrile, 318.15 K): 0.00159
solubility (mole fraction) (in acetonitrile, 323.15 K): 0.00195
solubility (mole fraction) (in benzyl alcohol, 278.15 K): 0.00226
solubility (mole fraction) (in benzyl alcohol, 283.15 K): 0.00262
solubility (mole fraction) (in benzyl alcohol, 288.15 K): 0.00307
solubility (mole fraction) (in benzyl alcohol, 293.15 K): 0.00374
solubility (mole fraction) (in benzyl alcohol, 298.15 K): 0.00452
solubility (mole fraction) (in benzyl alcohol, 303.15 K): 0.00553
solubility (mole fraction) (in benzyl alcohol, 308.15 K): 0.00661
solubility (mole fraction) (in benzyl alcohol, 313.15 K): 0.00806
solubility (mole fraction) (in benzyl alcohol, 318.15 K): 0.0101
solubility (mole fraction) (in benzyl alcohol, 323.15 K): 0.0128
solubility (mole fraction) (in ethanol, 278.15 K): 8.3e-05
solubility (mole fraction) (in ethanol, 283.15 K): 0.000128
solubility (mole fraction) (in ethanol, 288.15 K): 0.000198
solubility (mole fraction) (in ethanol, 293.15 K): 0.000303
solubility (mole fraction) (in ethanol, 298.15 K): 0.00045
solubility (mole fraction) (in ethanol, 303.15 K): 0.000679
solubility (mole fraction) (in ethanol, 308.15 K): 0.000986
solubility (mole fraction) (in ethanol, 313.15 K): 0.00144
solubility (mole fraction) (in ethanol, 318.15 K): 0.00208
solubility (mole fraction) (in ethanol, 323.15 K): 0.00292
solubility (mole fraction) (in isopropanol, 278.15 K): 9.1e-05
solubility (mole fraction) (in isopropanol, 283.15 K): 0.000138
solubility (mole fraction) (in isopropanol, 288.15 K): 0.000209
solubility (mole fraction) (in isopropanol, 293.15 K): 0.000307
solubility (mole fraction) (in isopropanol, 298.15 K): 0.000454
solubility (mole fraction) (in isopropanol, 303.15 K): 0.000663
solubility (mole fraction) (in isopropanol, 308.15 K): 0.000945
solubility (mole fraction) (in isopropanol, 313.15 K): 0.00136
solubility (mole fraction) (in isopropanol, 318.15 K): 0.0019
solubility (mole fraction) (in isopropanol, 323.15 K): 0.00265
solubility (mole fraction) (in methanol, 278.15 K): 0.00121
solubility (mole fraction) (in methanol, 283.15 K): 0.00137
solubility (mole fraction) (in methanol, 288.15 K): 0.00157
solubility (mole fraction) (in methanol, 293.15 K): 0.00184
solubility (mole fraction) (in methanol, 298.15 K): 0.00216
solubility (mole fraction) (in methanol, 303.15 K): 0.00257
solubility (mole fraction) (in methanol, 308.15 K): 0.00305
solubility (mole fraction) (in methanol, 313.15 K): 0.00365
solubility (mole fraction) (in methanol, 318.15 K): 0.00437
solubility (mole fraction) (in methanol, 323.15 K): 0.00528
solubility (mole fraction) (in n-butanol, 278.15 K): 0.000227
solubility (mole fraction) (in n-butanol, 283.15 K): 0.000282
solubility (mole fraction) (in n-butanol, 288.15 K): 0.000354
solubility (mole fraction) (in n-butanol, 293.15 K): 0.000439
solubility (mole fraction) (in n-butanol, 298.15 K): 0.000566
solubility (mole fraction) (in n-butanol, 303.15 K): 0.00072
solubility (mole fraction) (in n-butanol, 308.15 K): 0.000908
solubility (mole fraction) (in n-butanol, 313.15 K): 0.0012
solubility (mole fraction) (in n-butanol, 318.15 K): 0.00151
solubility (mole fraction) (in n-butanol, 323.15 K): 0.00197
solubility (mole fraction) (in water, 278.15 K): 0.00163
solubility (mole fraction) (in water, 283.15 K): 0.00181
solubility (mole fraction) (in water, 288.15 K): 0.00205
solubility (mole fraction) (in water, 293.15 K): 0.00234
solubility (mole fraction) (in water, 298.15 K): 0.0027
solubility (mole fraction) (in water, 303.15 K): 0.00313
solubility (mole fraction) (in water, 308.15 K): 0.00368
solubility (mole fraction) (in water, 313.15 K): 0.00434
solubility (mole fraction) (in water, 318.15 K): 0.00509
solubility (mole fraction) (in water, 323.15 K): 0.00604
